Results reported in patent US20020037885A1, “Therapeutic compounds” (priority 1999, published 2002).

System: marble burying behaviour in mice
Experiment: Mouse Marble Burying Assay (BUR)
Assay type: in vivo
Settings: Mus musculus; sc; Table 2; read-out: BUR sc ED50(mg/kg)
Protocol: This assay was carried out essentially according to the procedure described by Treit et al. (1981) Pharmacol Biochem Behav; 15; 619-626.
The results are presented as BUR ED50 (sc). This is the effective dose causing 50% inhibition of burying compared to control mice.

| SMILES | ED50 [mg/kg] |
| --- | --- |
| C=CCC(N)c1ccccc1-c1ccccc1.Cl (stereo not drawn) [15 (4), 2-phenyl-α-2-propenyl-benzenemethanamine hydrochloride] | 8.6 |

Same assay, conditions: Mus musculus; sc; effective dose causing 50% inhibition of burying compared to control mice; read-out: BUR ED50 (SC)

| SMILES | ED50 [mg/kg] |
| --- | --- |
| C=CCC(N)c1ccccc1-c1noc2ccc(F)cc12.Cl (stereo not drawn) [11(3), 2-(5-fluoro-1,2-benzisoxazol-3-yl)-α-2-propenyl-benzenemethanamine hydrochloride] | 2.68 |
| C=CC[C@@H](N)c1ccccc1-c1noc2cc(Cl)ccc12.Cl [12(2), (R)-(+)-2-(6-chloro-1,2-benzisoxazol-3-yl)-α-2-propenyl-benzenemethanamine hydrochloride] | 3.4 |
| Cl.NC(CC1CC1)c1ccccc1-c1noc2ccccc12 (stereo not drawn) [36(6), 2-(1,2-benzisoxazol-3-yl)-α-(cyclopropylmethyl)-benzenemethanamine hydrochloride] | 1.5 |
| Cl.NC(c1ccccc1-c1noc2ccccc12)C1CC=CCC1 (stereo not drawn) [Example 37, 2-(1,2-Benzisoxazol-3-yl)-α-(3-cyclohexenyl)-benzenemethanamine Hydrochloride] | 3.1 |

Same assay, conditions: Table 2

| SMILES | BUR sc ED50(mg/kg) |
| --- | --- |
| C=CCC(N)c1ccccc1-c1cccc2ccccc12.Cl (stereo not drawn) [15 (6), 2-(napth-1-yl)-α-2-propenyl-benzenemethanamine hydrochloride] | 11.6 |

Same assay, conditions: effective dose causing 50% inhibition of burying compared to control mice

| SMILES | BUR ED50 (SC) [mg/kg] |
| --- | --- |
| C#CCC(N)c1ccccc1-c1noc2cc(Cl)ccc12.C#CCC(N)c1ccccc1-c1noc2cc(Cl)ccc12.O=C(O)/C=C/C(=O)O (single isomer, unassigned; (-)) [13(5), (−)-2-(6-chloro-1,2-benzisoxazol-3-yl)-α-2-propynyl-benzenemethanamine (E)-butenedioate (2:1 salt)] | 0.4 |
| Cl.NC(Cc1ccc(F)cc1)c1ccccc1-c1noc2ccccc12 (stereo not drawn) [Example 36, 2-(1,2-Benzisoxazol-3-yl)-α-(4-fluorobenzyl)-benzenemethanamine Hydrochloride.] | 2.8 |

System: not given
Experiment: not given
Settings: not given

| SMILES | melting point [°C] |
| --- | --- |
| C=C(C)CC(N)c1ccccc1-c1noc2ccccc12.Cl (centres unmarked) | 170 to 200 |
| C=CCC(N)c1ccccc1-c1noc2cc(F)ccc12.Cl (centres unmarked) | 192 to 195 |
| C=CC[C@@H](N)c1ccccc1-c1noc2cc(F)ccc12.Cl | 148 to 150 |
| C=CCC(N)c1ccccc1-c1cc2ccccc2o1.Cl (centres unmarked) | 225 to 227 |
| C=CCC(N)c1ccccc1-c1nc2ccccc2s1.Cl (centres unmarked) | 240 to 242 |
| C=CCC(N)c1ccccc1-c1cc2ccccc2s1.Cl (centres unmarked) | 106 to 108 |
| C=CCC(N)c1ccccc1-c1cc2cc(F)ccc2s1.Cl (centres unmarked) | 104 to 106 |
| C=CCC(N)c1ccccc1-c1cc2cc(Cl)ccc2o1.Cl (centres unmarked) | 226 to 228 |
| C=CCC(N)c1ccccc1-c1coc2ccccc12.Cl (centres unmarked) | 160 to 165 |
| C=CCC(N)c1ccccc1-c1ccccc1OC.Cl (centres unmarked) | 236 to 240 |
| CNC(Cc1ccccc1)c1ccccc1-c1noc2ccccc12.Cl (centres unmarked) | 175 |
| C=CC[C@H](N)c1ccccc1-c1noc2cc(F)ccc12.Cl | 166 to 174 |
| CN(C)Cc1ccccc1-c1noc2ccccc12.Cl | 190 |
| CNCc1ccccc1-c1noc2ccccc12.Cl | 230 |
| C=CCNCc1ccccc1-c1noc2ccccc12.Cl | 176 |
| COc1ccccc1CNCc1ccccc1-c1noc2ccccc12.O=C(O)C(=O)O | 184 |
| Cl.Cl.c1cncc(CNCc2ccccc2-c2noc3ccccc23)c1 | 154 |
| Cl.NCc1ccccc1-c1noc2ccccc12 | 233 |
| C#CCC(N)c1ccccc1-c1noc2ccccc12.O=C(O)C(=O)O (centres unmarked) | > 250 |
| C#CCC(N)c1ccccc1-c1noc2cc(Cl)ccc12.Cl (centres unmarked) | 209 to 214 |
| CCCCC(N)c1ccccc1-c1noc2cc(Cl)ccc12.Cl (centres unmarked) | 209 to 214 |
| CCCC(N)c1ccccc1-c1noc2ccccc12.Cl (centres unmarked) | 118 to 126 |
| C=CCC(N)c1ccccc1-c1noc2ccc(F)cc12.Cl (stereo not drawn) [11(3), 2-(5-fluoro-1,2-benzisoxazol-3-yl)-α-2-propenyl-benzenemethanamine hydrochloride] | 209 to 214 |
| C=CC[C@@H](N)c1ccccc1-c1noc2cc(Cl)ccc12.Cl [12(2), (R)-(+)-2-(6-chloro-1,2-benzisoxazol-3-yl)-α-2-propenyl-benzenemethanamine hydrochloride] | 144 to 159 |
| C=CCC(N)c1ccccc1-c1ccccc1.Cl (stereo not drawn) [15 (4), 2-phenyl-α-2-propenyl-benzenemethanamine hydrochloride] | 214 to 218 |
| c1ccc(CNC(Cc2ccccc2)c2ccccc2-c2noc3ccccc23)cc1 (stereo not drawn) [Example 16(2), α-[2-(1,2-benzisoxazol-3-yl)phenyl]-N-benzyl-benzeneethanamine] | 153 |
| c1ccc(-c2noc3ccccc23)c(CNCc2ccccc2-c2noc3ccccc23)c1 [Example 22, 2-(1,2-Benzisoxazol-3-yl)-N-[[2-(1,2-benzisoxazol-3-yl)phenyl]methyl]-benzenemethanamine] | 138 |
| C1=CCC(c2ccccc2-c2noc3ccccc23)NC1 (centres unmarked) [Example 36(11), 2-[2-(1,2-benzisoxazol-3-yl)-phenyl]-1,2,3,6-tetrahydropyridine] | 242 to 268 |
| c1ccc(C2CCCN2)c(-c2noc3ccccc23)c1 (centres unmarked) [Example 36(12), 2-[2-(1,2-benzisoxazol-3-yl)-phenyl]-pyrrolidine] | 253 to 261 |

Next, values leading:

| melting point [°C] | SMILES |
| --- | --- |
| 179 to 186 | C=CCC(N)c1ccccc1-c1noc2cc(C(F)(F)F)ccc12.O=C(O)/C=C/C(=O)O (centres unmarked) |
| 148 to 150 | C=CCC(N)c1cccc(-c2noc3ccccc23)c1.O=C(O)/C=C\C(=O)O (centres unmarked) |
| 176 to 180 | C=CCC(N)c1cc(F)ccc1-c1noc2ccccc12.O=C(O)/C=C/C(=O)O (centres unmarked) |
| 174 to 177 | C=CCC(N)c1cc(Cl)ccc1-c1noc2ccccc12.O=C(O)/C=C/C(=O)O (centres unmarked) |
| 168 to 173 | C=CCC(N)c1cc(F)ccc1-c1noc2ccc(F)cc12.O=C(O)/C=C/C(=O)O (centres unmarked) |
| 164 to 169 | C=CCC(N)c1ccc(F)cc1-c1noc2ccc(F)cc12.O=C(O)/C=C/C(=O)O (centres unmarked) |
| 162 to 164 | C=CCC(N)c1cc(F)ccc1-c1noc2cc(Cl)ccc12.O=C(O)/C=C\C(=O)O (centres unmarked) |
| 104 to 109 | C=CC[C@@H](N)c1ccc(F)cc1-c1noc2ccccc12.O=C(O)/C=C/C(=O)O |
| 171 to 173 | C=CC[C@@H](N)c1cc(F)ccc1-c1noc2ccccc12.O=C(O)/C=C/C(=O)O |
| 97 to 108 | C=CC[C@H](N)c1ccc(F)cc1-c1noc2ccccc12.O=C(O)/C=C/C(=O)O |
| 205 to 208 | C=CCC(N)c1ccccc1-c1ccc(-c2ccccc2)c(F)c1.O=C(O)/C=C/C(=O)O (centres unmarked) |
| 183 to 185 | C=CCC(N)c1ccccc1-c1ccoc1.O=C(O)/C=C/C(=O)O (centres unmarked) |
| 181 to 183 | C=CCC(N)c1ccccc1Cc1ccccc1.O=C(O)/C=C/C(=O)O (centres unmarked) |
| 189 to 191 | C=CCC(N)c1ccccc1-c1ccccc1Cl.O=C(O)/C=C/C(=O)O (centres unmarked) |
| 209 to 211 | C=CCC(N)c1ccccc1-c1ccc(C)cc1F.O=C(O)/C=C/C(=O)O (centres unmarked) |
| 194 to 196 | C=CCC(N)c1ccccc1-c1ccc(C)c(F)c1.O=C(O)/C=C/C(=O)O (centres unmarked) |
| 192 to 194 | C=CCC(N)c1ccccc1-c1ccc(Cl)c(F)c1.O=C(O)/C=C/C(=O)O (centres unmarked) |
| 163 to 165 | C=CCC(N)c1ccccc1Cc1cccc(OC)c1.O=C(O)/C=C/C(=O)O (centres unmarked) |
| 172 to 174 | C=CCC(N)c1ccccc1Cc1ccccc1OC.O=C(O)/C=C/C(=O)O (centres unmarked) |
| 185 to 187 | C=CCC(N)c1ccccc1-c1csc2ccccc12.O=C(O)/C=C\C(=O)O (centres unmarked) |
| 202 to 204 | C=CCC(N)c1ccccc1-c1nc2ccccc2o1.O=C(O)/C=C/C(=O)O (centres unmarked) |
| 173 to 178 | C=CCC(N)C1(c2noc3ccccc23)CC=CS1.O=C(O)/C=C/C(=O)O (centres unmarked) |

| melting point [°C] | SMILES |
| --- | --- |
| 158 to 165 | C=CCC(N)C1(c2noc3ccccc23)CC=CO1.O=C(O)/C=C/C(=O)O (centres unmarked) |
| 161 to 164 | C=CCC(N)c1cc(-c2noc3ccccc23)cs1.O=C(O)/C=C/C(=O)O (centres unmarked) |
| 182 to 189 | C=CCC(N)c1ccc(-c2noc3ccccc23)s1.O=C(O)/C=C/C(=O)O (centres unmarked) |
| 210 to 216 | C=CCC(N)c1oc2ccccc2c1-c1noc2ccccc12.O=C(O)/C=C/C(=O)O (centres unmarked) |
| 190 to 192 | C=CCC(N)c1ccccc1-c1cc(F)ccc1C.O=C(O)/C=C/C(=O)O (centres unmarked) |
| 198 to 200 | C=CCC(N)c1ccccc1-c1ccc(C)cc1.O=C(O)/C=C/C(=O)O (centres unmarked) |
| 201 to 203 | C=CCC(N)c1ccccc1-c1ccc(F)cc1.O=C(O)/C=C/C(=O)O (centres unmarked) |
| 225 to 226 | C=CCC(N)c1ccccc1-c1ccccc1F.O=C(O)/C=C/C(=O)O (centres unmarked) |
| 179 to 184 | C=CCC(N)c1ccccc1-c1cc(Cl)ccc1C.O=C(O)/C=C/C(=O)O (centres unmarked) |
| 192 to 196 | C=CCC(N)c1ccccc1-c1cccc(Cl)c1C.O=C(O)/C=C/C(=O)O (centres unmarked) |
| 165 to 180 | C=CCC(N)c1ccccc1-c1cc(-c2ccccc2)on1.O=C(O)/C=C/C(=O)O (centres unmarked) |
| 130 to 138 | C=CCC(N)c1ccccc1-c1cc(C)on1.O=C(O)/C=C\C(=O)O (centres unmarked) |
| 196 to 197 | C=CCC(N)c1ccccc1-c1cccs1.O=C(O)/C=C/C(=O)O (centres unmarked) |
| 194 to 197 | C=CCC(N)c1ccccc1-c1cnc2ccccc2c1.O=C(O)/C=C/C(=O)O (centres unmarked) |
| 75 to 77 | C=CCC(N)c1ccccc1N1C=CC=NC1.O=C(O)/C=C/C(=O)O (centres unmarked) |
| 150 to 175 | C=CCC(N)c1ccccc1-c1ccon1.O=C(O)/C=C/C(=O)O (centres unmarked) |
| 132 to 135 | CC(C)=CCC(N)c1ccccc1-c1noc2ccccc12.O=C(O)/C=C\C(=O)O (centres unmarked) |
| 203 to 210 | NC(CCCC(F)(F)F)c1ccccc1-c1noc2ccccc12.O=C(O)/C=C/C(=O)O (centres unmarked) |
| 174 to 184 | CC(C)CC(N)c1ccccc1-c1noc2cc(F)ccc12.O=C(O)/C=C/C(=O)O (centres unmarked) |
| 165 to 170 | C#CCC(N)c1ccccc1-c1noc2ccccc12.O=C(O)/C=C/C(=O)O (centres unmarked) [Example 12(5)] |
| 161 to 169 | C#CCC(N)c1ccccc1-c1noc2ccccc12.O=C(O)/C=C/C(=O)O (centres unmarked) [Example 13(4)] |
